From patent US11903955B2, “Methods of treating heart failure with reduced ejection fraction” (ASTRAZENECA AB, priority 2019, dated 2024)
Where two headings read alike, the source gives them in different places. Marks after values point to notes of the source that are not given here.

Tested on: patients with chronic heart failure with reduced ejection fraction (LVEF ≤40%)
Settings: for Cardiovascular death or hospitalization for heart failure, Hazard Ratio (95% CI) / Cardiovascular death, Hazard Ratio (95% CI) / Death from any cause, Hazard Ratio (95% CI) / Hospitalization for heart failure or an urgent heart failure visit, Hazard Ratio (95% CI) / Hospitalization for heart failure, Hazard Ratio (95% CI) / Primary composite outcome, Hazard Ratio (95% CI) / Urgent heart failure visit, Hazard Ratio (95% CI) / Worsening renal function (composite), Hazard Ratio (95% CI) / Total number of (first and recurrent) heart failure hospitalizations and cardiovascular death, rate ratio (95% CI) / HR (95% CI) for primary outcome of CV death or worsening HF: dapagliflozin vs placebo; for Total number of (first and recurrent) heart failure hospitalizations and cardiovascular death, rate ratio (95% CI): LWYY method
Excerpt: Eligibility requirements included an age of at least 18 years, New York Heart Association (NYHA) class II, III, or IV symptoms, and an ejection fraction of 40% or less. […] Patients with atrial fibrillation or atrial flutter on their baseline electrocardiogram were required to have a NT-proBNP level of at least 900 pg/mL, irrespective of history of heart failure hospitalization. Patients were required to receive standard drug and device therapy for heart failure including an angiotensin-converting enzyme (ACE) inhibitor, angiotensin receptor blocker (ARB), or sacubitril/valsartan; a beta-blocker, unless contraindicated or not tolerated, and a mineralocorticoid receptor (MR) […], if considered appropriate. Doses were required to be individually optimized, in accordance with the targets recommended in guidelines, and stable for at least 4 weeks (excepting diuretics, which could be dosed flexibly). Investigators were advised that patients with type 2 diabetes should continue to take their glucose-lowering therapies, but these could be adjusted as required. Specifically, the protocol stated that the dose of insulin, sulfonylurea treatment, or both, could be reduced to minimize the risk of hypoglycemia, for example in patients with a baseline hemoglobin A1C (HbA1c) level below 7%.
All the patients provided written informed consent and entered a 14-day enrollment period during which the trial inclusion and exclusion criteria were checked and baseline information gathered, including findings from clinical examination and laboratory measurements. […] Investigators used an interactive voice or web response system to obtain treatment assignment. Randomization was stratified based on a diagnosis of type 2 diabetes, defined as either an established diagnosis or a HbA1c level of 6.5% or greater (≥48 mmol/mol) confirmed in a central laboratory at screening. Patients were evaluated at 14 days and 60 days after randomization, with a focus on assessment of heart failure and volume status, adverse events, and checking renal function and potassium. Further study visits took place at 4 months and at 4-month intervals thereafter. The protocol required that study drug be permanently discontinued if pregnancy or diabetic ketoacidosis occurred.
The primary outcome was a composite of a first episode of worsening heart failure or death from cardiovascular causes. An episode of worsening heart failure was either an unplanned hospitalization for heart failure or an urgent heart failure visit requiring intravenous therapy.^14 The first of the secondary outcomes was the composite of heart failure hospitalization or cardiovascular death.
Outcomes were adjudicated by a clinical-end-points committee, blinded to treatment assignment, according to prespecified criteria.
Using a two-sided alpha of 5%, we calculated that 844 primary endpoints would provide a statistical power of 90% for the test of the hypothesis. With an expected annual event rate of 11% in the placebo treatment group, approximately 4500 patients were estimated to provide the required number of primary events, based on an anticipated recruitment period of 18 months and an average follow-up period of approximately 24 months. A closed testing procedure was used, including a prespecified hierarchical testing of the primary and secondary endpoints in the order specified above. Type I error was controlled at a two-sided 0.0499 alpha level for multiplicity across primary and secondary endpoints and taking account of one interim efficacy analysis.
Data from all randomly assigned patients were included in the analyses of the primary and secondary outcomes, according to the intention-to-treat principle. Baseline characteristics were summarized as means and standard deviations, medians and inter-quartile ranges, or percentages.

[1] = all patients (N = 2373), listed as dapagliflozin
[2] = all patients, listed as dapagliflozin

CCOc1ccc(Cc2cc([C@@H]3O[C@H](CO)[C@@H](O)[C@H](O)[C@H]3O)ccc2Cl)cc1 [Dapagliflozin, dapagliflozin]
Worsening renal function (composite), No. (%) (all patients (N = 2373)): 28 (1.2) No. (%)
Cardiovascular death or hospitalization for heart failure, No. (%) [1]: 382 No. (%)
Cardiovascular death, No. (%) [1]: 227 No. (%)
Hospitalization for heart failure, No. (%) [1]: 231 (9.7%) No. (%)
Primary composite outcome (urgent heart failure visit, hospitalization for heart failure or cardiovascular death), No. (%) (all patients, 10 mg once daily (N = 2373), median follow-up 18.2 months): 386 (16.3) No. (%)
hospitalizations for heart failure, total first and recurrent (all patients, dapagliflozin arm): 340
Cardiovascular death or hospitalization for heart failure, Hazard Ratio (95% CI) (No T2DM): 0.73 (0.60-0.89)
Cardiovascular death, Hazard Ratio (95% CI) (No T2DM): 0.85 (0.66-1.10)
Death from any cause, Hazard Ratio (95% CI) (No T2DM): 0.88 (0.70-1.12)
Hospitalization for heart failure or an urgent heart failure visit, Hazard Ratio (95% CI) (No T2DM): 0.62 (0.48-0.80)
Hospitalization for heart failure, Hazard Ratio (95% CI) (No T2DM): 0.63 (0.48-0.81)
Primary composite outcome, Hazard Ratio (95% CI) (No T2DM): 0.73 (0.60 to 0.88)
Urgent heart failure visit, Hazard Ratio (95% CI) (No T2DM): 0.25 (0.07-0.89)
Worsening renal function (composite), Hazard Ratio (95% CI) (No T2DM): 0.67 (0.30-1.49)
Total number of (first and recurrent) heart failure hospitalizations and cardiovascular death, rate ratio (95% CI) (No T2DM): 0.73 (0.59, 0.91)
Cardiovascular death or hospitalization for heart failure, Hazard Ratio (95% CI) (T2DM): 0.75 (0.63-0.90)
Cardiovascular death, Hazard Ratio (95% CI) (T2DM): 0.79 (0.63-1.01)
Death from any cause, Hazard Ratio (95% CI) (T2DM): 0.78 (0.63-0.97)
Hospitalization for heart failure or an urgent heart failure visit, Hazard Ratio (95% CI) (T2DM): 0.77 (0.61-0.95)
Hospitalization for heart failure, Hazard Ratio (95% CI) (T2DM): 0.76 (0.61-0.95)
Primary composite outcome, Hazard Ratio (95% CI) (T2DM): 0.75 (0.63 to 0.90)
Urgent heart failure visit, Hazard Ratio (95% CI) (T2DM): 0.62 (0.24-1.59)
Worsening renal function (composite), Hazard Ratio (95% CI) (T2DM): 0.73 (0.39-1.34)
Total number of (first and recurrent) heart failure hospitalizations and cardiovascular death, rate ratio (95% CI) (T2DM): 0.77 (0.63, 0.94)
Cardiovascular death or hospitalization for heart failure, Hazard Ratio (95% CI) (all patients): 0.75 (0.65-0.85)
Cardiovascular death, Hazard Ratio (95% CI) (all patients): 0.82 (0.69-0.98)
Death from any cause, Hazard Ratio (95% CI) (all patients): 0.83 (0.71-0.97)
Hospitalization for heart failure or an urgent heart failure visit, Hazard Ratio (95% CI) (all patients): 0.70 (0.59-0.83)
Hospitalization for heart failure, Hazard Ratio (95% CI) (all patients): 0.70 (0.59-0.83)
Primary composite outcome, Hazard Ratio (95% CI) (all patients): 0.74 (0.65-0.85)
Urgent heart failure visit, Hazard Ratio (95% CI) (all patients): 0.43 (0.20-0.90)
Worsening renal function (composite), Hazard Ratio (95% CI) (all patients): 0.71 (0.44-1.16)
Total number of (first and recurrent) heart failure hospitalizations and cardiovascular death, rate ratio (95% CI) (all patients): 0.75 (0.65-0.88)‡
Total number of (first and recurrent) heart failure hospitalizations and cardiovascular death, rate ratio (95% CI) [2]: 0.75
Cardiovascular death or hospitalization for heart failure, Hazard Ratio (95% CI) [2]: 0.75
Cardiovascular death, Hazard Ratio (95% CI) [2]: 0.82
Death from any cause, Hazard Ratio (95% CI) [2]: 0.83
Hospitalization for heart failure, Hazard Ratio (95% CI) [2]: 0.70
Primary composite outcome, Hazard Ratio (95% CI) [2]: 0.74
Worsening renal function (composite), Hazard Ratio (95% CI) [2]: 0.71
HR (95% CI) for primary outcome of CV death or worsening HF (highest tertile of baseline KCCQ-TSS (>87.5)): 0.62 (0.46-0.83)
HR (95% CI) for primary outcome of CV death or worsening HF (lowest tertile of baseline KCCQ-TSS (≤65.6)): 0.70 (0.57-0.86)
HR (95% CI) for primary outcome of CV death or worsening HF (middle tertile of baseline KCCQ-TSS (65.7-87.5)): 0.77 (0.61-0.98)
numbers of patients who would need to have been treated to prevent one primary event (over the duration of the trial): 21
hazard ratio for the primary outcome (patients without diabetes, highest third of glycated hemoglobin (≥6.0%), dapagliflozin versus placebo): 0.72 (0.52, 1.00)
hazard ratio for the primary outcome (patients without diabetes, lowest third of glycated hemoglobin (≤5.6%), dapagliflozin versus placebo): 0.74 (95% CI 0.53, 1.04)
hazard ratio for the primary outcome (patients without diabetes, middle third of glycated hemoglobin (>5.6-<6.0%), dapagliflozin versus placebo): 0.71 (0.48, 1.04)
hazard ratio for the primary outcome (post hoc subgroup: patients not taking sacubitril-valsartan, dapagliflozin to placebo): 0.74
hazard ratio for the primary outcome (post hoc subgroup: patients taking sacubitril-valsartan at baseline, dapagliflozin to placebo): 0.75
